Test results: patent US20250034185A1 (priority 2021, published 2025)

Tests used:
plasma enzymes = settings: Sprague Dawley, rat
[1] = Pharmacokinetic study 4: SP isomer, RP isomer and D-amino acid prodrug, IV and PO, rats; format: in vivo; settings: rat, IV (and PO)
From the text: The goal of the study was to compare the pharmacokinetic (PK) profiles of the S-isomer (16i) and the R-isomer (16iii) at the phosphorus center, and to assess the effect of using the D-amino acid (16i with SP and RP isomers) on PK profile.
In order to isolate the effects of the administered agents on PL and PLP levels, the basal levels of both PL and PLP subtracted from the measured concentrations. Baseline subtraction was accomplished by subtracting pre-dose concentrations of either PL or PLP from the subsequent values in the time course.
Formulation—Prodrugs 16i (SP isomer), 16i (RP isomer) and 16i′ (16i with D-amino acid racemate) were formulated in phosphate buffered saline (PBS) as a homogenous solution on the day of dosing.
(§1) Animals and group—19 CD ♂ rats with an approx. weigh of ˜250 g were used. Animals were split into 6 groups+1 extra (n=3 for each group). Animals were allowed a 5-day acclimatization period in animal facility. The animal room environment was controlled (temperature 22 f 0.2° C.; relative humidity 55 f 25%; 12 hours light/dark cycle, and 12 air changes per hour). A standard certified commercial rodent chow was provided to the animals ad libitum. Procedures involving the care and use of animals in this study were reviewed and approved by the Institutional Animal Care and Use Committee (IACUC) prior to conduct. One day prior to dosing on D-1, Rats were divided in 6 groups (Table 1). Animals were identified and bled for pre-dose blood. Rats in Group 4, 5 and 6 were fasted overnight (12-14 hours) with access of water.
On day 0, animals were weighted, and dosed by IV injection or by oral gavage as described in Table 10. Food tray were returned to Group 4, 5 and 6 two hours post dosing.
(§2) Blood was collected at indicated time points below for all groups: Pre-dose, 5′, 15′, 30′, 1 h, 2 h, 4 h, 6 h, 8 h, 24 h.
(§3) About 150 μL of blood was collected at indicated time points below using K2EDTA tubes. Blood was kept on ice until centrifugation at 4° C. at 6000 RCF for 10 min. Plasma was collected and kept on dry ice until transferred at −80° C.

[2] = Pharmacokinetic study 1: P5P and P5P analog 16, IV and PO, rats; format: in vivo; settings: dosed orally, rat
Experimental: Pharmacokinetic study 1 was carried out (see Example 98: P5P analog 16i: Pharmacokinetic study 1) to assess if P5P analog 16i was able to be converted to P5P and increase plasma P5P, to assess if P5P analog 16i was orally available, and to compare the ability of PO P5P analog 16i and PO P5P to increase plasma P5P.
In order to isolate the effects of the administered P5P analog 16i on pyridoxine (PL) and P5P (PLP) levels, the basal levels of both PL and P5P were subtracted from the measured concentrations. Baseline subtraction was accomplished by subtracting pre-dose concentrations of either PL or P5P from the subsequent values in the time course.
Formulation—Both P5P (pyridoxal-5-phosphate) and P5P analog 16 were formulated in phosphate buffered saline (PBS) as homogenous solutions on the day of dosing.
Animals and group—13 CD ♂ rats with an approx. weigh of ˜250 g were used. Animals were split into 4 groups+1 extra (n=3 for each group). Animals were allowed a 5-day acclimatization period in animal facility. The animal room environment was controlled (temperature 22 f 0.2° C.; relative humidity 55 f 25%; 12 hours light/dark cycle, and 12 air changes per hour). A standard certified commercial rodent chow was provided to the animals ad libitum. Procedures involving the care and use of animals in this study were reviewed and approved by the Institutional Animal Care and Use Committee (IACUC) prior to conduct. One day prior to dosing on D-1, Rats were divided in 4 groups (Table 7). Rats in Group 3 and 4 were fasted overnight (12-14 hours) with access to water.
On day 0, animals were identified, weighted, and dosed by intravenous (IV) injection or oral gavage (PO) as described in Table 7. Food tray were returned to Group 3 and 4, 2 hrs post dosing.
as §2, §3

[3] = Single ascending dose study of P5P analog 16, oral, rats; format: in vivo; settings: rat
Experimental: Single ascending dose studies were carried out (Example 97: P5P analog 16i: single ascending dose study) to assess the maximum tolerability of a P5P analog (compound of formula 16i) in rats under 4 different doses under one single administration via Per Os (P.O.—oral) route, and to inform the linearity of pharmacokinetics (PK) with multiple dosing.
In order to isolate the effects of the administered compound of formula 16i on pyridoxine (PL) and P5P (PLP) levels, the basal levels of both PL and P5P were subtracted from the measured concentrations. Baseline subtraction was accomplished by subtracting pre-dose concentrations of either PL or P5P from the subsequent values in the time course.
Formulation—P5P analog 16 was formulated in 1% methylcellulose in water on the day of dosing.
as §1, with “group—17” for “group—19”, “4” for “6”, “(n=4” for “(n=3”, “6).” for “1).”, “all groups” for “Group 4, 5 and 6”
On day 0, animals in groups 1-2-3 were weighed, and dosed by oral gavage as described in Table 6. Each remaining dosing solutions were stirred (or slightly vortexed), a 50 ul sample were collected and placed in separate tube and both vials immediately frozen on dry ice. Food tray were returned to animals two hours post dosing.
Cage-side observation were done upon dosing, at the end of day, and 24 hrs post dosing (record adverse effect if observed). Animal were weighed again at 24 hrs post dosing.
Blood was collected at indicated time points for all groups at: Pre-dose, 15′, 30′, 1 h, 2 h, 4 h, 6 h, 8 h, 24 h.
as §3

Structure (SMILES): Cc1ncc(CO[P@@](=O)(N[C@@H](C)C(=O)OC(C)C)Oc2ccccc2)c(C=O)c1O [Compound 16i, (S)-Isopropyl 2-((S)-((4-formyl-5-hydroxy-6-methylpyridin-3-yl)methoxy)(phenoxy)phosphorylamino)propanoate]
- relative P5P formed (plasma enzymes): 100.0%
- conversion to PLP in the plasma [1]: readily converted to PLP
- oral availability of the prodrug (crosses gastrointestinal wall, detectable in circulation) [2]: orally bioavailable
- T1/2 of PL and PLP as dose was increased ([3]; PO 10-300 mg/kg): increase
- plasma PL and P5P concentrations with increasing dose ([3]; PO 10-300 mg/kg): clear dose-dependent increase
- dose linearity of plasma PL and PLP (Cmax and AUC) ([3]; PO): dose linearity up to 300 mg/kg
- signs of toxicity ([3]; highest dose group 300 mg/kg PO): did not show any signs of toxicity
- adverse reactions / clinical signs ([3]; single PO dose 10, 30, 100, 300 mg/kg, observed to 24 hrs): no clinical signs were observed
